# pEC50: −log10 of the molar value.
# What was measured:
# [1] = Microsomal stability in rat liver microsomes; assay type: in vitro ADME; details: rat liver microsomes 0.5 mg/ml, 1 mM NADPH, ~500 ng/ml compound, 37° C.
# Experimental: Frozen Sprague-Dawley rat liver microsomes (RLM) were thawed on ice and gently mixed before use. The final reaction mixture consisted of a nitrone compound of this invention (at ˜500 ng/ml), 1 mM NADPH, and 0.5 mg/ml of RLM protein in 0.1 M PBS (pH7.4), with organic solvent concentration not exceeding 1% (v/v). Per set of incubations, a positive control compound was included. The mixture was first pre-incubated 3 to 5 minutes at 37° C. without NADPH, and the reaction was then initialized by the addition of NADPH and incubated at 37° C. for up to 30 minutes. An aliquot of the reaction mixture was sampled at the initiation of the reaction and at designated time after reaction started. The drawn samples were quenched with acetonitrile, diluted with mobile phase to ensure the detection of test article in the linear range, and analyzed by LC/MS/MS. Half-life or percentage of remaining nitrone compound was calculated using standard methods. A similar method, or a slight variation of it, was used to test the stability of nitrones in human liver microsomes (HLM).
# [2] = DPPH free radical-scavenging/antioxidant assay; assay type: biochemical; details: 50 μM DPPH in 80% methanol; 24 h time point; read-out: EC50 (concentration at which a compound reduces by 50% the peak absorbance of DPPH at 520 nm)
# Outline: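 Compounds diluted 100-fold from DMSO stocks into 50 μM DPPH in 80% methanol; absorbance at 520 nm followed kinetically to steady state, with the 24 h reading used. EC50 interpolated from OD520 versus concentration; Trolox, BHA, PBN and S-PBN as positive controls, DMSO as vehicle.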
# [3] = Plasma protein binding (equilibrium dialysis), rat plasma; assay type: in vitro ADME; details: 1 μg/mL in plasma, dialysis vs phosphate buffer pH 7.4 overnight at 37° C., read-out: Plasma Protein Binding % Bound Rat (converted)
# Experimental: (§1) Nitrone compounds of this invention were individually dissolved in DMSO to make a stock solution of 1 mg/mL. The compound was spiked into plasma to achieve a final concentration of 1 μg/mL. Spiked plasma and phosphate buffer (0.1M, pH 7.4), 200 μl each, were added to the opposite sides of the membrane in a 96-well equilibrium dialyzer. The dialyzer plate was then covered and equilibrated overnight at 37° C. on an orbital shaker. Aliquots were taken from the plasma and the buffer compartments and prepared by adding blank plasma to samples from the buffer compartments and drug-free phosphate buffer to samples from the plasma compartments to eliminate the matrix effects. The samples were extracted using protein precipitation procedure by adding CH3CN. The samples were analyzed using a LC/MS/MS method. The percentage of free and bound nitrone compound were calculated according to the following formula:
# (§2) %Free=[Free Drug/Total Drug]*100=[(Peak Area)buffer/(Peak Area)serum]*100%Bound=100%Free
# [4] = Plasma protein binding (equilibrium dialysis), human plasma; assay type: in vitro ADME; details: 1 μg/mL in plasma, dialysis vs phosphate buffer pH 7.4 overnight at 37° C., read-out: Plasma Protein Binding % Bound Human (converted)
# Experimental: as §1, §2
# [5] = Pharmacokinetic evaluation following intravenous and oral administration in rats; assay type: in vivo; details: male, Sprague-Dawley; for Cmax / Tmax / bioavailability: 5 mg/kg; for Cmax: rat plasma; for Cmax / Tmax: oral gavage, 2 mg/mL at 2.5 mL/kg; for clearance / Vd / Tmax / bioavailability / half-life: plasma, rat; for clearance / Vd / half-life: 1 mg/kg; for clearance / Vd: intravenous administration, 1 mg/mL at 1.0 mL/kg; for clearance: read-out: CI (clearance) (converted); for Vd: read-out: Vd (volume of distribution); for bioavailability: po 2 mg/mL at 2.5 mL/kg vs iv 1 mg/mL at 1.0 mL/kg, dose-normalized, read-out: F (%) oral bioavailability; for half-life: intravenous, read-out: T1/2 elimination half life (converted)
# Outline: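 Male Sprague-Dawley rats, fasted, dosed iv (1 mg/mL formulation, 1.0 mL/kg, jugular or tail vein) or by oral gavage (2 mg/mL suspension, 2.5 mL/kg). Plasma sampled from 2 min to 480 min, some to 24 h, and quantified by LC-MS/MS (MRM). Parameters from noncompartmental analysis.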
# CCI rats = experiment: Mechanical allodynia in mononeuropathic pain model (chronic constrictive injury, CCI, Bennett model); assay type: in vivo, SD rats; details: for PWT ipsilateral hind paw (von Frey): 50 mg/kg p.o. single dose, mean ± SEM; for anti-allodynic effect on ipsilateral hind paw vs vehicle (in words): single dose 50 mg/kg, p.o.
# Text: Adult male SD rats weighing 250-300 gm (Charles River Laboratories, San Diego, Calif.) were used. The animal room was lighted artificially at a 12-hr light-dark cycle (7:00 A.M. to 7:00 P.M) with water and food supply ad libitum. Animals were allocated randomly into groups. Seven days before establishing the mononeuropathic pain disease model, rats were trained on a metal mesh floor, covered with a plastic box (10×10×18 cm) 1-2 hr per day to habituate. During the habituating phase, non-painful tactile stimulation on the plantar surface of each hind paw was induced by a set of calibrated von Frey filaments, through the mesh floor, as described in example 2.
# Following the 7-day training phase, the animals were anesthetized by i.p. injection of sodium pentobarbital (65 mg/kg, Abbott Lab, Chicago, Ill.). Under aseptic procedures, the skin of the left thigh was cut open for ˜2 cm. Mid-thigh level of the common sciatic nerve was exposed after blunt separation of the muscles. Two 4-0 silk and one 4-0 chromic gut sutures (both from Ethicon, Somerville, N.J.) were loosely ligated around the nerve, with a 1-1.5 mm interval between each of them. Skin wound was then close with wound clips. The right side (i.e., the contralateral side) was not surgically injured. After recovery from surgery, rats showing post-surgery neurological deficits or poor grooming were excluded from the experiments. This surgical procedure (i.e., chronic constrictive injury, CCI, or Bennett model) to establish mononeuropathic pain disease model has been described elsewhere (Bennett, G. J. and Xie, Y. K.: A peripheral mononeuropathy in rat that produces disorders of pain sensation like those seen in man. Pain, 33: 87-107, 1988).
# On days 1, 3, 4, 7, 9, 11, and 14 after surgery, animals were tested for mechanical allodynia with von Frey filaments as described previously. On or around post-surgical day 14, the ipsilateral hind paw, felt to 5 grams, an indication of allodynia began to manifest mechanical allodynia (i.e., amplified response to non-painful tactile stimulation by von Frey filaments). The contralateral hind paws remained above the 5-gram level (i.e., no allodynia).
# After manifestation of this allodynia, Compound 62 (50 mg/kg, p.o.), Compound 63 (50 mg/kg, p.o.), Compound 66 (50 mg/kg, p.o.), Compound 23 (50 mg/kg, p.o.), 4-hydroxy-tempol (TEMPOL, 50 mg/kg, p.o.), or piroxicam (a COX1 inhibitor, 50 mg/kg, p.o.) were administered to randomly-assigned animals. Changes of mechanical allodynia in the ipsilateral hind paw were recorded at several time points over the course of up to 24 hr.
# [6] = test system: carrageenan-sensitized inflammatory model of rat; experiment: Carrageenan-sensitized thermal hyperalgesia (Hargreaves test); assay type: in vivo; details: 30 mg/kg oral, data not shown
# Experimental: In this experiment, animals were habituated to the test environment for 2 days. Each rat was individually placed on a transparent perplex glass floor, covered with a plastic box (10×10×18 cm), and allowed 0.5-1 hr to habituate. After the acclimation period, basal thermal withdrawal latency (PWL, time interval between heat stimulation and paw withdrawal) was measured by exposing the plantar surface of a rats hind paw to a beam of radiant heat generated from a focused projection bulb through a transparent perplex glass surface (Hargreaves test; Hargreaves, K. R., Dubner, R., Brown, F., Flores, C. & Joris, J.: A new and sensitive method for measuring thermal nociception in cutaneous hyperalgesia. Pain, 32: 77-88, 1988). The PWL was averaged from at least two trials separated by a 2 min interval. A timer was used to measure the withdrawal latency and a cut of time of 20-sec was used to prevent tissue damage. Before the test on STZ-diabetic rats, the intensity of the radiating heat was adjusted to the level that caused naive animal to withdraw its paw at around 10 seconds.
# After a stable basal PWL was obtained, the animals were briefly anesthetized with isoflurane (2-5% to effect). One side of their hind paws received an intraplantar injection of lambda carrageenan (2 mg in 100 microliter sterile saline, Sigma, St. Louis, Mo.). The contralateral side received no injection and served as an intra-subject control. The animals were then returned to their home cages and transferred to the individual testing chambers for heat thermal hyperalgesic testing, 2.5 hr after carrageenan injection. 3-hr post-carrageenan injection, PWLs of both hind paws (i.e., ipsilateral and contralateral) were measured at several time points post-carrageenan injection (15-min to 24-hr).
# For compound testing, rats were randomly enrolled into groups that, immediately after the 3-hr post-carrageenan PWL was obtained, received oral dosing of Compound 62 (50 mg/kg), Compound 63 (50 mg/kg), vehicle (1 ml/kg), or indomethacin (30 mg/kg). Compound 62 and Compound 63 were prepared as a suspension in vehicle (96% of 0.5% CMC and 4% of 10% Tween 80) while indomethacin was prepared as a 30 mg/ml in normal saline.
% of Nitrone Remaining at 30 min (Rat) [1] [%],pEC50 [2],fraction unbound at 1 μg/mL [3],fraction unbound at 1 μg/mL [4],Cmax [5] [ng/mL],clearance [5] [mL/min/kg],Vd [5] [L/kg],Tmax [5] [min],bioavailability [5] [%],half-life [5] [min],Compound,PWT ipsilateral hind paw (von Frey) (CCI rats; post-dosing time 30 min) [gm],PWT ipsilateral hind paw (von Frey) (CCI rats; post-dosing time 60 min) [gm],PWT ipsilateral hind paw (von Frey) (CCI rats; post-dosing time 300 min) [gm],PWT ipsilateral hind paw (von Frey) (CCI rats; post-dosing time 1440 min) [gm],PWT ipsilateral hind paw (von Frey) (CCI rats; post-dosing time −15 min (pre-dose)) [gm],anti-allodynic effect on ipsilateral hind paw vs vehicle (in words) (CCI rats),effect on carrageenan-sensitized heat hyperalgesia (in words) [6]
0,< 3.00,,,,,,,,,"CCN(CC)S(=O)(=O)c1ccccc1/C=[N+](\[O-])Cc1ccccc1 [Compound 32, N-Benzyl-C-(2-diethylsulfamoylphenyl)nitrone]",,,,,,,
,< 3.00,0.78,0.864,4760,1.17,0.42,79.8,46.4,266,"CCS(=O)(=O)c1ccc(/C=[N+](\[O-])C(C)(C)C)cc1 [Compound 67, N-tert-Butyl-C-(4-ethanesulfonylphenyl)nitrone]",,,,,,,
,3.00 to 3.30,0.783,0.781,2110,7.83,0.63,59.4,36.4,55.8,"CCS(=O)(=O)c1ccccc1/C=[N+](\[O-])C(C)(C)C [Compound 68, N-tert-Butyl-C-(2-ethanesulfonylphenyl)nitrone]",,,,,,,
,< 3.00,0.755,0.532,1840,14,0.76,11.4,54.9,38.4,"CC(C)S(=O)(=O)c1ccccc1/C=[N+](\[O-])C(C)(C)C [Compound 69, N-tert-Butyl-C-[2-(2-propanesulfonyl)phenyl]nitrone]",,,,,,,
,< 3.00,0.718,0.796,1270,20,1.07,29.4,52.2,37.2,"CC(C)S(=O)(=O)c1ccc(/C=[N+](\[O-])C(C)(C)C)cc1 [Compound 70, N-tert-Butyl-C-[4-(2-propanesulfonyl)phenyl]nitrone]",,,,,,,
,< 3.00,0.484,0.544,108,31,1.66,16.8,5.87,45.6,"CC(C)(C)/[N+]([O-])=C/c1ccc(S(=O)(=O)C2CCCC2)cc1 [Compound 71, N-tert-Butyl-C-[4-(cyclopentanesulfonyl)phenyl]nitrone]",,,,,,,
,< 3.00,0.319,0.367,1520,11,2.69,19.2,59.8,169,"CC(C)(C)/[N+]([O-])=C/c1ccc(C(F)(F)F)cc1S(C)(=O)=O [Compound 72, N-tert-Butyl-C-[2-methanesulfonyl-4-trifluoromethylphenyl]nitrone]",,,,,,,
,,,,,,,,,,"CC1(C)CC(O)CC(C)(C)N1[O] [TEMPOL, 4-hydroxy-tempol, reference compound]",4.80 ± 0.49,4.80 ± 0.49,5.48 ± 1.09,4.80 ± 1.02,4.00 ± 0.89,no significant anti-allodynic effect,
,,,,,,,,,,"COc1ccc2c(c1)c(CC(=O)O)c(C)n2C(=O)c1ccc(Cl)cc1 [indomethacin, reference compound]",,,,,,,significantly reversed carrageenan-sensitized heat hyperalgesia
,,,,,,,,,,"CN1C(C(=O)Nc2ccccn2)=C(O)c2ccccc2S1(=O)=O [piroxicam, reference compound]",,,,,,long-lasting anti-allodynic effect,
